Like-named read-outs stand apart in the source and are kept apart here.
Assays:
erbB1^T790M = erbB1^T790M (Homo sapiens, UniProt P00533, T790M); assay: Isolated enzyme inhibition (Invitrogen Z′-LYTE kinase assay); assay type: biochemical; settings: 10 μM ATP, duplicate
[1] = Pulse radiolysis (E(1) and fragmentation rate); assay type: physicochemical; settings: for kfrag. (fragmentation rate constant upon 1-electron reduction): benzyl-type radical formation; for E (1)/V (one-electron reduction potential): determined against methylviologen
A431 xenografts = assay: In vivo efficacy in A431 xenografts
Description: (§1) Specific pathogen-free homozygous female CD-1 nude mice (Charles River Laboratories, Wilmington, Mass.) were inoculated subcutaneously with a single cell suspension of A431 cells (5×10^6 cells/100 pt; right flank). When A431 tumour xenografts were established (typically 6-10 days) mice were randomized to treatment groups. All compounds were prepared in lactate buffer (pH4). Mice were dosed by intraperitoneal injection (0.01-0.03 ml/g) using the stated schedules and dose levels. Tumour size and body weights were measured at regular intervals. Tumour volume was calculated as π (length×width^2)/6. […] Differences in RTV^4 were tested for statistical difference by Mann Whitney U test using SigmaStat v3.5.

SKOV3 xenografts = assay: In vivo efficacy in SKOV3 xenografts; parameters: species or system mice
Description: as §1, with “NIH-III” for “CD-1”, “SKOV3” for “A431”, “(1×10^7” for “(5×10^6”, “μL;” for “pt;”, “50-65” for “6-10”
as §1, with “NIH-III” for “CD-1”, “SKOV3” for “A431”, “(1×10^7” for “(5×10^6”, “μL;” for “pt;”, “50-65” for “6-10”, “Compounds 42 and 161” for “All compounds”

A431 cells = assay: Cellular growth inhibition (sulforhodamine B)
erbB1 = erbB1 (Homo sapiens, UniProt P00533); assay: Inhibition of erbB1 autophosphorylation in EGF-stimulated intact A431 cells (Western blot)
erbB2 = erbB2 (Homo sapiens, UniProt P04626); assay: Inhibition of basal phospho-erbB2 in SKOV3 cells (Western blot); assay type: cell-based; parameters: endogenous in cells; host or cells: SKOV3 human ovarian carcinoma cells; settings: Table 8
From the text: Values are plotted using SigmaPlot 10.

Chain of erbB1 (P00533 25-1210): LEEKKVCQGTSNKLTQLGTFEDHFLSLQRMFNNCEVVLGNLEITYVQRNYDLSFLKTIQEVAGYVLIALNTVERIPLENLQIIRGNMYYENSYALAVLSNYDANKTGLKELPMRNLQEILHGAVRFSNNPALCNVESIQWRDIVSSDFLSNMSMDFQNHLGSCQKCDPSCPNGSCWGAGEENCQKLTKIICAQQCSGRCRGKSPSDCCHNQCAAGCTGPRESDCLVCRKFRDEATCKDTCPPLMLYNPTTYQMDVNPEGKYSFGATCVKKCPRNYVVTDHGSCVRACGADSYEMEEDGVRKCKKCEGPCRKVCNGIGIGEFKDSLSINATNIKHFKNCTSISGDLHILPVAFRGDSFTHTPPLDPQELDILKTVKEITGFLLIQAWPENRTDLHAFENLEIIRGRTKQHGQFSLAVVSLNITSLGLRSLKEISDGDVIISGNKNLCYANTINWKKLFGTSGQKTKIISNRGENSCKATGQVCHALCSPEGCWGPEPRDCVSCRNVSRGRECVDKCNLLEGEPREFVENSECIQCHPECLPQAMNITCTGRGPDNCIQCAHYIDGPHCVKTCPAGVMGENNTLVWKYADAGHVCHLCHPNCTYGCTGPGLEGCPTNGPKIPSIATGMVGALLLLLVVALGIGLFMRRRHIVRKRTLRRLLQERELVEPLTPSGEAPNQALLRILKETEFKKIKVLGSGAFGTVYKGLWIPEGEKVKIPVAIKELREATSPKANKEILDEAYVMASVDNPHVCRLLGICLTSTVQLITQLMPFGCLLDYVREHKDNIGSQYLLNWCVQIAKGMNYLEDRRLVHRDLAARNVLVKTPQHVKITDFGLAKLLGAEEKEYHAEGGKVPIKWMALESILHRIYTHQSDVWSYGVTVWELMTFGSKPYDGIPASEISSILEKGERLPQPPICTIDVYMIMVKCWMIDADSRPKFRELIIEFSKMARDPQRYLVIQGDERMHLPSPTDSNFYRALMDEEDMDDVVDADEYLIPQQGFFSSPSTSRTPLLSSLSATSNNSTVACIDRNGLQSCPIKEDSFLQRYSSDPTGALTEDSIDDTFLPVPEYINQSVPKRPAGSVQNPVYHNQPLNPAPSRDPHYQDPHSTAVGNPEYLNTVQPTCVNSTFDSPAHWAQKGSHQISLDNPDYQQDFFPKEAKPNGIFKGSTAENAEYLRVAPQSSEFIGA
Chain of erbB2 (P04626 23-1255): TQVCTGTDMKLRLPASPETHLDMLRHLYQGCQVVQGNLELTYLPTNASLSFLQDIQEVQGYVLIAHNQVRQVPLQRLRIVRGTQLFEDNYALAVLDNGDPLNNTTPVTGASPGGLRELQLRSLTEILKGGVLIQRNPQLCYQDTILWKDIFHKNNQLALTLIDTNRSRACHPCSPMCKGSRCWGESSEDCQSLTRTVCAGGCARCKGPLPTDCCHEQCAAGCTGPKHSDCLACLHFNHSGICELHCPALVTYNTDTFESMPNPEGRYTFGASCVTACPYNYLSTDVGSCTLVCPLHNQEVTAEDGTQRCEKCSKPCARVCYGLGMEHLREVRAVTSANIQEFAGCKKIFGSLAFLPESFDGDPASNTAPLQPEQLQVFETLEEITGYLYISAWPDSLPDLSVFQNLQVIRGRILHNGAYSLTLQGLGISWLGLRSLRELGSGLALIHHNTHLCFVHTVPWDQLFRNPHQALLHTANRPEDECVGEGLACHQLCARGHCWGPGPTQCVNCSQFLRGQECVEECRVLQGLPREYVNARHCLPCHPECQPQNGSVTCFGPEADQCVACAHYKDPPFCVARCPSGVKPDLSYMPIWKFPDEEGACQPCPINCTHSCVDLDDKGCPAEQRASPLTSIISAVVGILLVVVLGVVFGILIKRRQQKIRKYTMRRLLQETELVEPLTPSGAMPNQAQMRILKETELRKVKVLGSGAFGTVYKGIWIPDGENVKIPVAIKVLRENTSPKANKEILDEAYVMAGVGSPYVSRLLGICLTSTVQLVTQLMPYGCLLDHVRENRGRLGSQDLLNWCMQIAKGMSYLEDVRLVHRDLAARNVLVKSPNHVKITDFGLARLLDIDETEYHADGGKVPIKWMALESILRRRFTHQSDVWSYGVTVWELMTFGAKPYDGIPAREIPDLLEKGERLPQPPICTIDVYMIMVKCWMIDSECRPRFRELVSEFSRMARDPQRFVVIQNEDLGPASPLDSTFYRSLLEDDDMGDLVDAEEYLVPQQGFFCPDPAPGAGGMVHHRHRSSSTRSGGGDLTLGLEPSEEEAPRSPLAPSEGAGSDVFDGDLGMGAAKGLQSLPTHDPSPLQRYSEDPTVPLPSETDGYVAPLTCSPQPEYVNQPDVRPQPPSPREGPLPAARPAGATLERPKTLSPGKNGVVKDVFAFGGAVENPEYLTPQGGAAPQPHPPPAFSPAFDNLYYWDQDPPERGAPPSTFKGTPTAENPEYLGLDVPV
Chain of erbB1^T790M (P00533 25-1210 T790M): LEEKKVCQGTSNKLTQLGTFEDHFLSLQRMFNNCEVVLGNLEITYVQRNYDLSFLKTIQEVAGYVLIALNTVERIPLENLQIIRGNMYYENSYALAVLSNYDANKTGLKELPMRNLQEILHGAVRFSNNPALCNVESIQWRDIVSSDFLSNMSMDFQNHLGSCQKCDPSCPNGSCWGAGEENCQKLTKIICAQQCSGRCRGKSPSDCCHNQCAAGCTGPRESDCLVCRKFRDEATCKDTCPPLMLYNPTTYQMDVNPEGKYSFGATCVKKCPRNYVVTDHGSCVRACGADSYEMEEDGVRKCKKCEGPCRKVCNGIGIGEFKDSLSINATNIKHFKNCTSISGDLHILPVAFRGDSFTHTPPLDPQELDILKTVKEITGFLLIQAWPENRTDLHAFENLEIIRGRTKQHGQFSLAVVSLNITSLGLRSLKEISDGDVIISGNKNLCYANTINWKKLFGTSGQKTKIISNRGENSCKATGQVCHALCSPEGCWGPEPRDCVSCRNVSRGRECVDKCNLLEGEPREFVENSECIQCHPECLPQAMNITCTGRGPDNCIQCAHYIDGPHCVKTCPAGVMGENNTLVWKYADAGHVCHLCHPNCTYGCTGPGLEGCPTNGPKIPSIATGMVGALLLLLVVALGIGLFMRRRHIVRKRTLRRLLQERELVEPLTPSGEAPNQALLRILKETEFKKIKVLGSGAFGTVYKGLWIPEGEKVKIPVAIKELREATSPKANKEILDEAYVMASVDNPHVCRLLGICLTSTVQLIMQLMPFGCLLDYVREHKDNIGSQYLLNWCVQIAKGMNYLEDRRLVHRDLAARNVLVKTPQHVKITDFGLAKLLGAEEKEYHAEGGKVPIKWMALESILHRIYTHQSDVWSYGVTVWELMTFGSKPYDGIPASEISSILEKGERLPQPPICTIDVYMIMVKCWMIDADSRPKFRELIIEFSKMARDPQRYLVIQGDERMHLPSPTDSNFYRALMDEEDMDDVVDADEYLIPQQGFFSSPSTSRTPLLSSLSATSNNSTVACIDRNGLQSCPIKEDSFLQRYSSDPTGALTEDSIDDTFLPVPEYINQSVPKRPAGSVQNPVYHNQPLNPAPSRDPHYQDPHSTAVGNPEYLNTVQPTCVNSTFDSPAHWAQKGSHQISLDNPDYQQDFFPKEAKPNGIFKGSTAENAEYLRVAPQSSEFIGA

SMILES: Cn1cnc([N+](=O)[O-])c1C[N+](C)(C)C/C=C/C(=O)Nc1ccc2ncnc(Nc3cccc(Br)c3)c2c1.[Br-] [Compound 20, (2E)-4-{[4-(3-bromoanilino)-6-quinazolinyl]amino}-N,N-dimethyl-N-[(1-methyl-4-nitro-1H-imidazol-5-yl)methyl]-4-oxo-2-buten-1-ammonium bromide]
- IC50 (erbB1^T790M): 594 nM
- kfrag. (fragmentation rate constant upon 1-electron reduction) [1]: 130 ± 10 s⁻¹
- E (1)/V (one-electron reduction potential) [1]: −0.427 V
- efficacy by growth delay (A431 xenografts; A431 xenografts, equitoxic dose (63% of single dose MTD), q4dx6, IP): superior efficacy to effector 11
- tumour growth inhibition (TGI) (A431 xenografts; A431 xenografts, q4dx3 at MTD, IP in lactate buffer): > 210%
- deaths (A431 xenografts; A431 xenografts, q4dx6, 63% of single dose MTD): 0/12
- efficacy by growth delay (SKOV3 xenografts; 133 (20) and 56 (11) umol/kg/dose, q3dx6, IP): superior efficacy to effector 11
- deaths (SKOV3 xenografts; q3dx6, 133 (20) and 56 (11) umol/kg/dose): 0/7
- IC50 (A431 cells; read-out: Cellular Growth Inhibition IC50 A431 Anoxic, Table 3, first 4 hours of 24 hour exposure anoxic): 78 nM
- IC50 (A431 cells; read-out: Cellular Growth Inhibition IC50 A431 Oxic, Table 3, 24 hour exposure entirely oxic): 2090 nM
- IC50 (erbB1; read-out: cellular erbB1 autophosphorylation IC50, intact A431 cells): 555 nM

SMILES: Cn1cnc([N+](=O)[O-])c1C[N+](C)(C)C/C=C/C(=O)Nc1cc2c(Nc3ccc(F)c(Br)c3)ncnc2cn1 [Compound 42, (2E)-4-{[4-(3-bromo-4-fluoroanilino)pyrido[3,4-d]pyrimidin-6-yl]amino}-N,N-dimethyl-N-[(1-methyl-4-nitro-1H-imidazol-5-yl)methyl]-4-oxo-2-buten-1-ammonium bromide]
- kfrag. (fragmentation rate constant upon 1-electron reduction) [1]: 50 ± 10 s⁻¹
- E (1)/V (one-electron reduction potential) [1]: −0.425±0.008 V
- tumour growth inhibition (TGI) (A431 xenografts; large A431 xenografts, 20 mg/kg/dose, q3dx8, IP): 400%
- tumour growth inhibition (TGI) (A431 xenografts; large A431 xenografts, 40 mg/kg/dose, q3dx8, IP): 800%
- tumour growth inhibition (TGI) (A431 xenografts; large A431 xenografts, 60 mg/kg/dose, q3dx8, IP): 786%
- tumour growth inhibition (TGI) (A431 xenografts; large A431 xenografts, 80 mg/kg/dose, q3dx8, IP): 843%
- efficacy by growth delay (SKOV3 xenografts; 100 (42) and 31.6 (161) μmol/kg/dose, q3dx9, IP): superior efficacy to compound 161
- deaths (SKOV3 xenografts; q3dx9, 100 (42) and 31.6 (161) μmol/kg/dose): 0/7
- solubility (physchem; aqueous buffer): 129 µM
- solubility (physchem; water): > 1160 µM
- IC50 (A431 cells; Homo sapiens, A-431, 4 h, read-out: Cellular Growth Inhibition IC50 A431 Anoxic): 75 nM
- IC50 (A431 cells; Homo sapiens, A-431, 24 h, read-out: Cellular Growth Inhibition IC50 A431 Oxic): 1690 nM
- A431 Deact. (A431 cells; Table 9): 56 fold
- A431 HCR (A431 cells; Table 9): 60.0 fold
- Deact. erbB2 (fold reduction in cellular inhibition relative to the parent kinase inhibitor) (erbB2; SKOV3 cells): 35 fold
- IC50 (erbB2; basal phospho-erbB2 in SKOV3 cells, read-out: Cellular Enzyme Inhibition IC50 erbB2): 212 nM
- IC50 (erbB1): 411 nM
- Deact. erbB1 (fold reduction in cellular inhibition relative to the parent kinase inhibitor) (erbB1; Table 8, A431 cells): 82 fold

From patent publication US9073916B2, “Prodrug forms of kinase inhibitors and their use in therapy” (AUCKLAND UNISERVICES LIMITED, priority 2009, dated 2015)
